Data reported in patent publication US20250177363A1, “SUBSTITUTED IMIDAZOPYRIDINYL COMPOUNDS USEFUL AS INHIBITORS OF TLR9” (Bristol-Myers Squibb Company, priority 2022, published 2025).

Columns and labels:
Format in all cases: cell-based
[1] = molecular target: T1, human TLR7 (Homo sapiens, UniProt Q9NYK1); assay: TLR7 inhibition reporter assay (HEK-Blue, SEAP); conditions: HEK-Blue cells overexpressing human TLR7, ligand gardiquimod 2.5 μM, 22 hour incubation
T1 construct: host or cells: HEK-Blue cells
T1 sequence (Q9NYK1 27-1049): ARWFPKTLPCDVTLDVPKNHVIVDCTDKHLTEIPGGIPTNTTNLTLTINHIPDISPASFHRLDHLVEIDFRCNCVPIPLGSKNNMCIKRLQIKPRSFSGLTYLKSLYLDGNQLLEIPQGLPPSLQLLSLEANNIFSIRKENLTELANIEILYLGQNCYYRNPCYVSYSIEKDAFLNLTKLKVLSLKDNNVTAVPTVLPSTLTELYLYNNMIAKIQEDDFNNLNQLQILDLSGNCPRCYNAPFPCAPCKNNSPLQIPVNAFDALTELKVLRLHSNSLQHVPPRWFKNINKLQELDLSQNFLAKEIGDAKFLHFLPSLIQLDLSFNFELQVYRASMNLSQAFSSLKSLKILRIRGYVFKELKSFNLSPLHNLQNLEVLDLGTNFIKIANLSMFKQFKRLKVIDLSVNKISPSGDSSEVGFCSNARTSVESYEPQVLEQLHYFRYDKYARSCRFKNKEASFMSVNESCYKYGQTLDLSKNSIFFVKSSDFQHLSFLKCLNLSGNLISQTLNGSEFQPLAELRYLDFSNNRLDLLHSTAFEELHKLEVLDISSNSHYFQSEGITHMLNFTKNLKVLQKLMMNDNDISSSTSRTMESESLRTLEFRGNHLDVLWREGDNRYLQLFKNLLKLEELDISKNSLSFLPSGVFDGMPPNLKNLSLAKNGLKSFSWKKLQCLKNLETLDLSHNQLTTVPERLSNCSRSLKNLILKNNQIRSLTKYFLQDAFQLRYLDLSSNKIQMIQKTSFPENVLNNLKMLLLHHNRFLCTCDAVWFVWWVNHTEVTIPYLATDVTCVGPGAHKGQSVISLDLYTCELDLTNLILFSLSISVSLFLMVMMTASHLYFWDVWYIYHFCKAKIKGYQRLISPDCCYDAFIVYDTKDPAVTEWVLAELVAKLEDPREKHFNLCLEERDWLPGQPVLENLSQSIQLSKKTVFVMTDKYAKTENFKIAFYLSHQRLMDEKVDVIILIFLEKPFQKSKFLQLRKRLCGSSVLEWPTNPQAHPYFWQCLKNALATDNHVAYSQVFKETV
How it was run: (§1)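 HEK-Blue cells expressing human TLR7, TLR8 or TLR9 with NF-κB/AP-1-driven SEAP reporter; compounds 0.85 nM–50 μM, pre-treated 60 min. Stimulation: gardiquimod 2.5 μM (TLR7), R848 14.25 μM (TLR8), ODN2006 200 nM (TLR9); SEAP read after 22 h at 37 °C. Percent inhibition normalized between agonist+DMSO and known-inhibitor wells.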

[2] = molecular target: T2, human TLR9 (Homo sapiens, UniProt Q9NR96); assay: TLR9 inhibition reporter assay (HEK-Blue, SEAP); conditions: HEK-Blue cells overexpressing human TLR9, ligand ODN2006 200 nM, 22 hour incubation
T2 construct: host or cells: HEK-Blue cells
T2 sequence (Q9NR96 26-1032): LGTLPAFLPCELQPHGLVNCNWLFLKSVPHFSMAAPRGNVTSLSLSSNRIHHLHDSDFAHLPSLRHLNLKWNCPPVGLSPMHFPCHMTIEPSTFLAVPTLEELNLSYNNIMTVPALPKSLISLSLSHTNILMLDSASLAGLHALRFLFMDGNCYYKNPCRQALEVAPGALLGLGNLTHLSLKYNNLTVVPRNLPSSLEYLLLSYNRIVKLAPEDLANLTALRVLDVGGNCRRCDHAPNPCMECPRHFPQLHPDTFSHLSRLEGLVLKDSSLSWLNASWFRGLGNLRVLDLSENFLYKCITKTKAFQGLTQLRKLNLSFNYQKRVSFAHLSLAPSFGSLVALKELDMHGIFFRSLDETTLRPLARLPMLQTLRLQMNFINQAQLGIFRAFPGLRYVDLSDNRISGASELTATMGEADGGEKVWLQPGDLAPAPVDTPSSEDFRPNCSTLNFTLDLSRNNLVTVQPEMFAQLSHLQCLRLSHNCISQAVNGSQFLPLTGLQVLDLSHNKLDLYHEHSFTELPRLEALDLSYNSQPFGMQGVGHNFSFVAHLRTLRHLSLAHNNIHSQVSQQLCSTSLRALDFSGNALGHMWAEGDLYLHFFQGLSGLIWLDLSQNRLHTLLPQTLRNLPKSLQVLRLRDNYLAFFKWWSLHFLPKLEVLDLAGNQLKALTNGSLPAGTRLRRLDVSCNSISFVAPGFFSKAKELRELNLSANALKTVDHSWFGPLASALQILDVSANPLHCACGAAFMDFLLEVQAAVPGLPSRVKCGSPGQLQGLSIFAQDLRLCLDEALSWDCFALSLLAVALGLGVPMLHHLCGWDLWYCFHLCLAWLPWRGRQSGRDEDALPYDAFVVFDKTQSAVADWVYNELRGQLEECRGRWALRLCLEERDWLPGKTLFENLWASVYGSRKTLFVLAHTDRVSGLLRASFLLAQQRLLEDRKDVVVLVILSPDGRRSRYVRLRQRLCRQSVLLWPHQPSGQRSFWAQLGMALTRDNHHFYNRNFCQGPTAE
How it was run: as §1

[3] = molecular target: T3, human TLR8 (Homo sapiens, UniProt Q9NR97); assay: TLR8 inhibition reporter assay (HEK-Blue, SEAP); conditions: HEK-Blue cells overexpressing human TLR8, ligand R848 14.25 μM, 22 hour incubation
T3 construct: host or cells: HEK-Blue cells
T3 sequence (Q9NR97 27-1041): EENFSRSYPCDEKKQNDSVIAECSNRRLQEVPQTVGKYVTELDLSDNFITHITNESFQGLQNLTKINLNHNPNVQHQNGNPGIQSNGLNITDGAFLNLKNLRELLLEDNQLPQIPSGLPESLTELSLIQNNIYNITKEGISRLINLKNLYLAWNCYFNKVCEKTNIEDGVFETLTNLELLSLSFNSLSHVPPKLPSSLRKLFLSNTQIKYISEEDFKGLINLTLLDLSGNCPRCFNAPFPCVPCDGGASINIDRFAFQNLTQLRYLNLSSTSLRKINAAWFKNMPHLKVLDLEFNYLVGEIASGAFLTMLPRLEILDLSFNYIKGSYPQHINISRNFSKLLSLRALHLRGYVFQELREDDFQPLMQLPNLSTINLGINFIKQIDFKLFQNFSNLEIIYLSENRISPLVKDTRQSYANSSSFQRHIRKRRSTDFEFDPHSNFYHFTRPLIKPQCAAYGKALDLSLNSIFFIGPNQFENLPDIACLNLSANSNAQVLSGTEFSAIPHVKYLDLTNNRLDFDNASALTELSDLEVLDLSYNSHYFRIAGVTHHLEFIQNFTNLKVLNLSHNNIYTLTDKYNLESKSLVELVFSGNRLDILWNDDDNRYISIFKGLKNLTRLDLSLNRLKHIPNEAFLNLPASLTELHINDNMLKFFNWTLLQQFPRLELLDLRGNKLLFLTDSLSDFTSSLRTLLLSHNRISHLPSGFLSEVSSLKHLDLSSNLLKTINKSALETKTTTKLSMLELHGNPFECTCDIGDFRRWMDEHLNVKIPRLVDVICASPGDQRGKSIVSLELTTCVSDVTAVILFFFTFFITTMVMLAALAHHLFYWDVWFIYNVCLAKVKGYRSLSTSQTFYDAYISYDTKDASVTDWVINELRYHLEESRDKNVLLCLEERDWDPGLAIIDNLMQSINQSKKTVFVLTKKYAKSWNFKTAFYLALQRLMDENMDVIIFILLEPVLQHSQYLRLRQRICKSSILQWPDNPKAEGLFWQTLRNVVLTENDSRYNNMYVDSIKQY
How it was run: as §1

Structure (SMILES) | IC50 [1] | IC50 [2] | IC50 [3]
Cc1cc(-c2ccc(CN3CC4(C3)CN(C(C)C)C4)cc2)nc2c1nc(-c1ccc(S(C)(=O)=O)cc1)n2C1CC1 [Example 3, 3-cyclopropyl-5-(4-((6-isopropyl-2,6-diazaspiro[3.3]heptan-2-yl)methyl)phenyl)-7-methyl-2-(4-(methylsulfonyl)phenyl)-3H-imidazo[4,5-b]pyridine] | 0.71 µM | 190 nM | > 50 µM
CC(C)N1CC2(CN(c3ccc(-c4ccc5nc(-c6ccc(S(C)(=O)=O)cc6)n(C)c5n4)cc3)C2)C1 [Example 65, 5-(4-(6-isopropyl-2,6-diazaspiro[3.3]heptan-2-yl)phenyl)-3-methyl-2-(4-(methylsulfonyl)phenyl)-3H-imidazo[4,5-b]pyridine] | > 50 µM | 740 nM | 3 µM
Cc1cc(-c2ccc(N3CCN(C(C)C)CC3)cc2)nc2c1nc(-c1ccc(S(C)(=O)=O)cc1)n2C [Example 7, 5-(4-(4-isopropylpiperazin-1-yl)phenyl)-3,7-dimethyl-2-(4-(methylsulfonyl)phenyl)-3H-imidazo[4,5-b]pyridine] | 29 µM | 1200 nM | > 50 µM
Cc1cc(-c2ccc(CN3CCC(N4CCOCC4)CC3)cc2)nc2c1nc(-c1ccc(S(C)(=O)=O)cc1)n2C1CC1 [Example 47, 4-(1-(4-(3-cyclopropyl-7-methyl-2-(4-(methylsulfonyl)phenyl)-3H-imidazo[4,5-b]pyridin-5-yl)benzyl)piperidin-4-yl)morpholine] | 15 µM | 290 nM | > 50 µM
CC(C)N1CCC(N2CCC(c3cnc4nc(-c5ccc(S(C)(=O)=O)cc5)n(C)c4c3)CC2)CC1 [Example 14, 6-(1′-isopropyl-[1,4′-bipiperidin]-4-yl)-1-methyl-2-(4-(methylsulfonyl)phenyl)-1H-imidazo[4,5-b]pyridine] | > 50 µM | 3100 nM | > 50 µM
CC(C)N1CC2(CCN(c3ccc(-c4ccc5nc(-c6ccc(S(C)(=O)=O)cc6)n(C)c5n4)cc3)CC2)C1 [Example 61, 5-(4-(2-isopropyl-2,7-diazaspiro[3.5]nonan-7-yl)phenyl)-3-methyl-2-(4-(methylsulfonyl)phenyl)-3H-imidazo[4,5-b]pyridine] | 16 µM | 560 nM | 18 µM

Second part, the compound after the results:

IC50 [1] | IC50 [2] | IC50 [3] | Structure (SMILES)
2.9 µM | 60 nM | > 50 µM | Cc1cc(C2CCN(C3CC4CCC(C3)N4CC3CC3)CC2)nc2c1nc(-c1ccc(S(C)(=O)=O)cc1)n2C (single isomer, unassigned) [Example 30, 5-(1-(8-(cyclopropylmethyl)-8-azabicyclo[3.2.1]octan-3-yl)piperidin-4-yl)-3,7-dimethyl-2-(4-(methylsulfonyl)phenyl)-3H-imidazo[4,5-b]pyridine]
0.31 µM | 130 nM | 24 µM | COc1ccc(-c2nc3c(C)cc(C4CCN([C@H]5C[C@@H]6CN(C7CCC7)C[C@@H]6C5)CC4)nc3n2C)cc1OC [Example 39, 5-(1-(2-cyclobutyloctahydrocyclopenta[c]pyrrol-5-yl)piperidin-4-yl)-2-(3,4-dimethoxyphenyl)-3,7-dimethyl-3H-imidazo[4,5-b]pyridine]
4.1 µM | 42 nM | > 50 µM | Cc1cc(C2CCN(C3CCN(C4CCOCC4)CC3)CC2)nc2c1nc(-c1ccc(S(C)(=O)=O)cc1)n2C [Example 25, 3,7-dimethyl-2-(4-(methylsulfonyl)phenyl)-5-(1′-(tetrahydro-2H-pyran-4-yl)-[1,4′-bipiperidin]-4-yl)-3H-imidazo[4,5-b]pyridine]
40 µM | 1400 nM | > 50 µM | COc1ccc(-c2nc3ccc(-c4ccc(N5CCN(C(C)C)CC5)cc4)nc3n2C2CC2)cc1OC [Example 55, 3-cyclopropyl-2-(3,4-dimethoxyphenyl)-5-(4-(4-isopropylpiperazin-1-yl)phenyl)-3H-imidazo[4,5-b]pyridine]
7.2 µM | 240 nM | 19 µM | Cc1cc(C2CCN(C3CC4CCC(C3)N4CC3CC3)CC2)nc2c1nc(-c1ccc(S(C)(=O)=O)cc1)n2C (single isomer, unassigned) [Example 31, 5-(1-(8-(cyclopropylmethyl)-8-azabicyclo[3.2.1]octan-3-yl)piperidin-4-yl)-3,7-dimethyl-2-(4-(methylsulfonyl)phenyl)-3H-imidazo[4,5-b]pyridine]
1.2 µM | 640 nM | > 50 µM | COc1ccc(-c2nc3ccc(-c4ccc(N5CCN(C(C)C)CC5)cc4)nc3n2C)cc1OC [Example 52, 2-(3,4-dimethoxyphenyl)-5-(4-(4-isopropylpiperazin-1-yl)phenyl)-3-methyl-3H-imidazo[4,5-b]pyridine]
2.5 µM | 1100 nM | 3.6 µM | COc1ccc(-c2nc3c(C)cc(-c4ccc(N5CCC6(CC5)CN(CC(C)C)C6)cc4)nc3n2C)cc1OC [Example 60, 2-(3,4-dimethoxyphenyl)-5-(4-(2-isobutyl-2,7-diazaspiro[3.5]nonan-7-yl)phenyl)-3,7-dimethyl-3H-imidazo[4,5-b]pyridine]
